Each structure is given as a SMILES string.

`CCc1nc2cc(C(N)=O)c(Cl)cc2n1-c1ccc(CCOC(=O)NS(=O)(=O)c2ccc(C)cc2)cc1`: the melting point – broadly, the temperature, or range, at which the solid turns liquid – fell in the range of 170 to 175 °C. The same measure for `CCc1nc2cc(COC)c(Cl)cc2n1-c1ccc(CCOC(=O)NS(=O)(=O)c2ccc(C)cc2)cc1`: 174.5 °C; for `Cc1ccc(S(=O)(=O)NC(=O)OCCc2ccc(-n3c(CCC(=O)c4cccnc4)nc4cc(C(F)(F)F)c(Cl)cc43)cc2)cc1`: 89 to 95 °C; for `Cc1ccc(S(=O)(=O)NC(=O)OCCc2ccc(-n3c(CCC(=O)c4ccccn4)nc4cc(C(F)(F)F)c(Cl)cc43)cc2)cc1`: 233.6 °C. The figure for `Cc1ccc(S(=O)(=O)NC(=O)OCCc2ccc(-n3c(CCC(=O)N4CCCCC4)nc4cc(C(F)(F)F)c(Cl)cc43)cc2)cc1` is 210 °C; for `Cc1ccc(S(=O)(=O)NC(=O)OCCc2ccc(-n3c(CCCN4CCCC4=O)nc4cc(C(F)(F)F)c(Cl)cc43)cc2)cc1` it is 85 to 90 °C. The figure for `CCc1nc2c(C)cc(C)nc2n1-c1ccc(CC(C)OC(=O)NS(=O)(=O)c2ccc(C)cc2)cc1` (stereo not shown) [Example 7, 2-[4-(2-ETHYL-5,7-DIMETHYL-3H-IMIDAZO[4,5-b]PYRIDIN-3-YL)PHENYL]-1-METHYLETHYL (4-METHYLPHENYL)SULFONYLCARBAMATE] is 108 °C; for `CCc1nc2cc(C(=O)NC)c(Cl)cc2n1-c1ccc(CCOC(=O)NS(=O)(=O)c2ccc(C)cc2)cc1` [Example 334, 2-(4-{6CHLORO-2-ETHYL-5-[(METHYLAMINO)CARBONYL]-1H-BENZIMIDAZOL-1-YL}PHENYL)ETHYL (4-METHYLPHENYL)SULFONYLCARBAMATE] it is 201 to 204 °C. Molecule `CCc1nc2cc(CO)c(Cl)cc2n1-c1ccc(CCOC(=O)NS(=O)(=O)c2ccc(C)cc2)cc1` [Example 337, 2-{4-[6-CHLORO-2-ETHYL-5-(HYDROXYMETHYL)-1H-BENZIMIDAZOL-1-YL]PHENYL}ETHYL (4-METHYLPHENYL)SULFONYLCARBAMATE] yielded a melting point of 172.7 °C. `Cc1ccc(S(=O)(=O)NC(=O)OCCc2ccc(-n3c(CCC(=O)N4CCCC4)nc4cc(C(F)(F)F)c(Cl)cc43)cc2)cc1` [Example 363, 2-{4-[6-CHLORO-2-[3-OXO-3-(1-PYRROLIDINYL)PROPYL]-5-(TRIFLUOROMETHYL)-1H-BENZIMIDAZOL-1-YL]PHENYL}ETHYL (4-METHYLPHENYL)SULFONYLCARBAMATE]: the melting point lay within 98 to 105 °C.

Source of the values: US7479564B2, “Aryl or heteroaryl fused imidazole compounds as anti-inflammatory and analgesic agents” (RaQualia Pharma Inc., priority 2000, dated 2009).
